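Values below derive from 48-hour exposures of cells grown in 96-well plates, with endpoints linearly interpolated between the two concentrations bracketing the appropriate inhibition level. TGI: total growth inhibition.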
Tests used:
Assay in all cases: NCI tumour cell line growth inhibition, 48 h
786-0 renal = tested on: 786-0 renal
A498 renal = tested on: A498 renal
A549 NSCLC = tested on: A549 NSCLC
ACHN renal = tested on: ACHN renal
CAKI-1 renal = tested on: CAKI-1 renal
CCRF-CEM leukemia = tested on: CCRF-CEM leukemia
COLO 205 colon = tested on: COLO 205 colon
DLD-1 colon = tested on: DLD-1 colon
DMS 114 small cell lung = tested on: DMS 114 small cell lung
DMS 273 small cell lung = tested on: DMS 273 small cell lung
EKVX NSCLC = tested on: EKVX NSCLC
HCC-2998 colon = tested on: HCC-2998 colon
HCT-116 colon = tested on: HCT-116 colon
HCT-15 colon = tested on: HCT-15 colon
HL-60(TB) leukemia = tested on: HL-60(TB) leukemia
HOP-18 NSCLC = tested on: HOP-18 NSCLC
HOP-62 NSCLC = tested on: HOP-62 NSCLC
HOP-92 NSCLC = tested on: HOP-92 NSCLC
HT29 colon = tested on: HT29 colon
IGROV1 ovarian = tested on: IGROV1 ovarian
K-562 leukemia = tested on: K-562 leukemia
KM12 colon = tested on: KM12 colon
KM20L2 colon = tested on: KM20L2 colon
LOX IMVI melanoma = tested on: LOX IMVI melanoma
LXFL 529 NSCLC = tested on: LXFL 529 NSCLC
M14 melanoma = tested on: M14 melanoma
M19-MEL melanoma = tested on: M19-MEL melanoma
MALME-3M melanoma = tested on: MALME-3M melanoma
MOLT-4 leukemia = tested on: MOLT-4 leukemia
NCI-H226 lung = tested on: NCI-H226 lung
NCI-H23 lung = tested on: NCI-H23 lung
NCI-H460 lung = tested on: NCI-H460 lung
NCI-H522 lung = tested on: NCI-H522 lung
OVCAR-3 ovarian = tested on: OVCAR-3 ovarian
OVCAR-4 ovarian = tested on: OVCAR-4 ovarian
OVCAR-5 ovarian = tested on: OVCAR-5 ovarian
OVCAR-8 ovarian = tested on: OVCAR-8 ovarian
RPMI-8226 leukemia = tested on: RPMI-8226 leukemia
RXF 393 renal = tested on: RXF 393 renal
SF-268 CNS = tested on: SF-268 CNS
SF-295 CNS = tested on: SF-295 CNS
SF-539 CNS = tested on: SF-539 CNS
SK-MEL-2 melanoma = tested on: SK-MEL-2 melanoma
SK-MEL-28 melanoma = tested on: SK-MEL-28 melanoma
SK-MEL-5 melanoma = tested on: SK-MEL-5 melanoma
SK-OV-3 ovarian = tested on: SK-OV-3 ovarian
SN12C renal = tested on: SN12C renal
SNB-19 CNS = tested on: SNB-19 CNS
SNB-75 CNS = tested on: SNB-75 CNS
SNB-78 CNS = tested on: SNB-78 CNS
SR leukemia = tested on: SR leukemia
SW-620 colon = tested on: SW-620 colon
TK-10 renal = tested on: TK-10 renal
U251 CNS = tested on: U251 CNS
UACC-257 melanoma = tested on: UACC-257 melanoma
UACC-62 melanoma = tested on: UACC-62 melanoma
UO-31 renal = tested on: UO-31 renal
XF 498 CNS = tested on: XF 498 CNS

Which results are given for COc1ccc(-c2c3ccccc3c(-c3ccc(OC)cc3)c3ccccc23)cc1?
TGI (786-0 renal): > 100 µM; TGI (A498 renal): > 100 µM; TGI (A549 NSCLC): > 100 µM; TGI (ACHN renal): > 100 µM; TGI (CAKI-1 renal): > 100 µM; TGI (CCRF-CEM leukemia): > 100 µM; TGI (COLO 205 colon): > 100 µM; TGI (DLD-1 colon): > 100 µM; TGI (DMS 114 small cell lung): > 100 µM; TGI (DMS 273 small cell lung): > 100 µM; TGI (EKVX NSCLC): > 100 µM; TGI (HCC-2998 colon): > 100 µM; TGI (HCT-116 colon): > 100 µM; TGI (HCT-15 colon): > 100 µM; TGI (HL-60(TB) leukemia): > 100 µM; TGI (HOP-18 NSCLC): > 100 µM; TGI (HOP-62 NSCLC): > 100 µM; TGI (HOP-92 NSCLC): > 100 µM; TGI (HT29 colon): > 100 µM; TGI (IGROV1 ovarian): > 100 µM; TGI (K-562 leukemia): > 100 µM; TGI (KM12 colon): > 100 µM; TGI (KM20L2 colon): > 100 µM; TGI (LOX IMVI melanoma): > 100 µM; TGI (LXFL 529 NSCLC): > 100 µM; TGI (M14 melanoma): > 100 µM; TGI (M19-MEL melanoma): > 100 µM; TGI (MALME-3M melanoma): > 100 µM; TGI (MOLT-4 leukemia): > 100 µM; TGI (NCI-H226 lung): > 100 µM; TGI (NCI-H23 lung): > 100 µM; TGI (NCI-H460 lung): > 100 µM; TGI (NCI-H522 lung): > 100 µM; TGI (OVCAR-3 ovarian): > 100 µM; TGI (OVCAR-4 ovarian): > 100 µM; TGI (OVCAR-5 ovarian): > 100 µM; TGI (OVCAR-8 ovarian): > 100 µM; TGI (RPMI-8226 leukemia): > 100 µM; TGI (RXF 393 renal): > 100 µM; TGI (SF-268 CNS): > 100 µM; TGI (SF-295 CNS): > 100 µM; TGI (SF-539 CNS): > 100 µM; TGI (SK-MEL-2 melanoma): > 100 µM; TGI (SK-MEL-28 melanoma): > 100 µM; TGI (SK-MEL-5 melanoma): > 100 µM; TGI (SK-OV-3 ovarian): > 100 µM; TGI (SN12C renal): > 100 µM; TGI (SNB-19 CNS): > 100 µM; TGI (SNB-75 CNS): 95.7 µM; TGI (SNB-78 CNS): > 100 µM; TGI (SR leukemia): > 100 µM; TGI (SW-620 colon): > 100 µM; TGI (TK-10 renal): > 100 µM; TGI (U251 CNS): > 100 µM; TGI (UACC-257 melanoma): > 100 µM; TGI (UACC-62 melanoma): > 100 µM; TGI (UO-31 renal): > 100 µM; TGI (XF 498 CNS): > 100 µM

For CCN(CC)C(=O)c1c(Cl)cc(N(CC)CC)oc1=O, which TGI (786-0 renal) is on record?
The TGI was over 100 µM.

What about the TGI (A498 renal) of the same molecule?
The TGI was over 100 µM.

And the TGI (A549 NSCLC)?
Its TGI is over 100 µM.

What about the TGI (ACHN renal) of the same molecule?
Its TGI is over 100 µM.

And the TGI (CCRF-CEM leukemia)?
The TGI was over 100 µM.

What about the TGI (COLO 205 colon) of the same molecule?
The TGI was over 100 µM.

And the TGI (DLD-1 colon)?
The TGI was over 100 µM.

What about the TGI (DMS 114 small cell lung) of the same molecule?
The TGI was over 100 µM.

And the TGI (DMS 273 small cell lung)?
Its TGI is over 100 µM.

And the TGI (EKVX NSCLC)?
Its TGI is over 100 µM.

And the TGI (HCC-2998 colon)?
Its TGI is over 100 µM.

And the TGI (HCT-116 colon)?
Its TGI is over 100 µM.

What about the TGI (HCT-15 colon) of the same molecule?
The TGI was over 100 µM.

And the TGI (HL-60(TB) leukemia)?
The TGI was over 100 µM.

What about the TGI (HOP-18 NSCLC) of the same molecule?
Its TGI is over 100 µM.

What about the TGI (HOP-62 NSCLC) of the same molecule?
Its TGI is over 100 µM.

What about the TGI (HOP-92 NSCLC) of the same molecule?
Its TGI is over 100 µM.

And the TGI (HT29 colon)?
Its TGI is over 100 µM.

What about the TGI (IGROV1 ovarian) of the same molecule?
The TGI was over 100 µM.

And the TGI (K-562 leukemia)?
The TGI was over 100 µM.

And the TGI (KM12 colon)?
Its TGI is over 100 µM.

What about the TGI (KM20L2 colon) of the same molecule?
The TGI was over 100 µM.

What about the TGI (LOX IMVI melanoma) of the same molecule?
The TGI was over 100 µM.

What about the TGI (LXFL 529 NSCLC) of the same molecule?
The TGI was over 100 µM.

And the TGI (M14 melanoma)?
The TGI was over 100 µM.

And the TGI (M19-MEL melanoma)?
Its TGI is over 100 µM.

What about the TGI (MALME-3M melanoma) of the same molecule?
Its TGI is over 100 µM.

What about the TGI (MOLT-4 leukemia) of the same molecule?
Its TGI is over 100 µM.

And the TGI (NCI-H226 lung)?
Its TGI is over 100 µM.

And the TGI (NCI-H23 lung)?
Its TGI is over 100 µM.

What about the TGI (NCI-H460 lung) of the same molecule?
Its TGI is over 100 µM.

What about the TGI (NCI-H522 lung) of the same molecule?
The TGI was over 100 µM.

And the TGI (OVCAR-3 ovarian)?
Its TGI is over 100 µM.

What about the TGI (OVCAR-4 ovarian) of the same molecule?
The TGI was over 100 µM.

What about the TGI (OVCAR-8 ovarian) of the same molecule?
Its TGI is over 100 µM.

What about the TGI (RPMI-8226 leukemia) of the same molecule?
The TGI was over 100 µM.

And the TGI (RXF 393 renal)?
Its TGI is over 100 µM.

What about the TGI (SF-268 CNS) of the same molecule?
Its TGI is over 100 µM.

And the TGI (SF-295 CNS)?
The TGI was over 100 µM.

What about the TGI (SF-539 CNS) of the same molecule?
The TGI was over 100 µM.

And the TGI (SK-MEL-2 melanoma)?
Its TGI is over 100 µM.

And the TGI (SK-MEL-28 melanoma)?
Its TGI is over 100 µM.

What about the TGI (SK-OV-3 ovarian) of the same molecule?
The TGI was over 100 µM.

What about the TGI (SN12C renal) of the same molecule?
The TGI was over 100 µM.

What about the TGI (SNB-19 CNS) of the same molecule?
Its TGI is over 100 µM.

What about the TGI (SNB-75 CNS) of the same molecule?
Its TGI is over 100 µM.

What about the TGI (SNB-78 CNS) of the same molecule?
Its TGI is over 100 µM.

And the TGI (SR leukemia)?
Its TGI is over 100 µM.

And the TGI (SW-620 colon)?
The TGI was over 100 µM.

What about the TGI (TK-10 renal) of the same molecule?
Its TGI is over 100 µM.

What about the TGI (U251 CNS) of the same molecule?
The TGI was over 100 µM.

And the TGI (UACC-257 melanoma)?
The TGI was over 100 µM.

And the TGI (UACC-62 melanoma)?
Its TGI is over 100 µM.

What about the TGI (UO-31 renal) of the same molecule?
The TGI was over 100 µM.

What about the TGI (XF 498 CNS) of the same molecule?
Its TGI is over 100 µM.

Reference: PubChem BioAssay (NCI)
